The supplement of paper PMC11208160

Test: recombinant UMI read abundance after kanamycin selection (control-corrected) (log10(CPM+1)); higher = more efficient recombination; extreme values may be limits of the assay; sequences stand for … in AGTGCAGAGAAAATCGGCCAGTTTTCTCTGCCTGCAGTCCGCATGCCGTGGGACCCCTTGGGTTCTAACCTGTTGCCTAGATTTATGCAGCGGACTGCCTTTCTCCCAAAGTGATAAACCGG…AGGTTGGTTTCACT; site = the 11-nt donor
In short: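 In a pooled Escherichia coli screen for the IS621 bridge recombinase, donor and donor-binding-loop pairs were each placed with a 12-nt UMI on a plasmid bearing a promoterless kanamycin gene. This library was co-electroporated with a target plasmid encoding a fixed target and T7-inducible recombinase, and cells were plated either on IPTG (0.07 mM) plus kanamycin or without selection, in two replicates each. Recombinant UMIs were PCR-amplified across the donor–target junction and sequenced, and counts were converted to CPM, averaged over replicates, scaled by control-derived factors and reported as log10(CPM+1).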

Row | Sequence | recombinant UMI read abundance (log10)
1 | CTATACACATGGACCGGTTTTCCCGGTAATCCGTATTTGCT (site CTGTACACTAG) | 0.705
2 | CTATACACATGGACCGGTTTTCCCGGTAATCCGTATTTGCT (site CTTTACACTAG) | 0.92
3 | CTATACTCATGGACCGGTTTTCCCGGTAATCCGTATTTGTT (site CTATACTCTAA) | 3.11
4 | CTATATACATGGACCGGTTTTCCCGGTAATCCGTATTTGAC (site CTATATACTGT) | 3.02
5 | CTATCAACATGGACCGGTTTTCCCGGTAATCCGTATTTGCT (site CGATCATCTAG) | 0.00622
6 | CTATCAACATGGACCGGTTTTCCCGGTAATCCGTATTTGCT (site CTATCAACTAG) | 1.92
7 | CTATCATCATGGACCGGTTTTCCCGGTAATCCGTATTTGGT (site CGATCATCTAG) | 0
8 | CTATCATCATGGACCGGTTTTCCCGGTAATCCGTATTTGGT (site CTATCATCTAC) | 0.706
9 | CTATCCTCATGGACCGGTTTTCCCGGTAATCCGTATTTGAA (site CTATCCTCTTT) | 2.6
10 | CTATTCCCATGGACCGGTTTTCCCGGTAATCCGTATTTGCT (site CAATTCCCTAG) | 0.77
11 | CTATTCCCATGGACCGGTTTTCCCGGTAATCCGTATTTGCT (site CCATTCCCTAG) | 1.43
12 | CTATTCCCATGGACCGGTTTTCCCGGTAATCCGTATTTGCT (site CGATTCCCTAG) | 0.475
13 | CTATTCCCATGGACCGGTTTTCCCGGTAATCCGTATTTGCT (site CTATTCCCTAG) | 0.845
14 | CTCAACACATGGACCGGTTTTCCCGGTAATCCGTATTTGCT (site CTCAACACTAG) | 2
15 | CTCAACACATGGACCGGTTTTCCCGGTAATCCGTATTTGCT (site CTCCACACTAG) | 0.438
16 | CTCAACACATGGACCGGTTTTCCCGGTAATCCGTATTTGCT (site CTCGACACTAG) | 0.368
17 | CTCAACACATGGACCGGTTTTCCCGGTAATCCGTATTTGCT (site CTCTACACTAG) | 1.23
18 | CTCAAGCCATGGACCGGTTTTCCCGGTAATCCGTATTTGAG (site CTCAAGCCTCT) | 0
19 | CTCAGAACATGGACCGGTTTTCCCGGTAATCCGTATTTGCC (site CTCAGAACTGG) | 1.47
20 | CTCAGACCATGGACCGGTTTTCCCGGTAATCCGTATTTGCG (site CTCAGACCTCG) | 0
21 | CTCAGGACATGGACCGGTTTTCCCGGTAATCCGTATTTGAG (site CTCAGGACTCT) | 0
22 | CTCCACACATGGACCGGTTTTCCCGGTAATCCGTATTTGCT (site CTCAACACTAG) | 0
23 | CTCCACACATGGACCGGTTTTCCCGGTAATCCGTATTTGCT (site CTCCACACTAG) | 2.08
24 | CTCCACACATGGACCGGTTTTCCCGGTAATCCGTATTTGCT (site CTCGACACTAG) | 0
25 | CTCCACACATGGACCGGTTTTCCCGGTAATCCGTATTTGCT (site CTCTACACTAG) | 1.54

Row | Sequence | recombinant UMI read abundance (log10)
26 | CTCCACGCATGGACCGGTTTTCCCGGTAATCCGTATTTGTT (site CTCCACGCTAA) | 1.57
27 | CTCCCGACATGGACCGGTTTTCCCGGTAATCCGTATTTGGA (site CTCCCGACTTC) | 0.231
28 | CTCCCTACATGGACCGGTTTTCCCGGTAATCCGTATTTGTG (site CTCCCTACTCA) | 0.525
29 | CTCCCTACATGGACCGGTTTTCCCGGTAATCCGTATTTGTG (site CTCCCTACTCC) | 0.617
30 | CTCCCTACATGGACCGGTTTTCCCGGTAATCCGTATTTGTG (site CTCCCTACTCG) | 0.143
31 | CTCCCTACATGGACCGGTTTTCCCGGTAATCCGTATTTGTG (site CTCCCTACTCT) | 0.00616
32 | CTCCGTACATGGACCGGTTTTCCCGGTAATCCGTATTTGCT (site CACCGTACTAG) | 1.41
33 | CTCCGTACATGGACCGGTTTTCCCGGTAATCCGTATTTGCT (site CCCCGTACTAG) | 1.28
34 | CTCCGTACATGGACCGGTTTTCCCGGTAATCCGTATTTGCT (site CGCCGTACTAG) | 0.00286
35 | CTCCGTACATGGACCGGTTTTCCCGGTAATCCGTATTTGCT (site CTCCGTACTAG) | 1.45
36 | CTCCTGTCATGGACCGGTTTTCCCGGTAATCCGTATTTGAC (site CTCCTGTCTGT) | 0
37 | CTCGCGGCATGGACCGGTTTTCCCGGTAATCCGTATTTGCC (site CTCGCGGCTGG) | 0
38 | CTCGCTACATGGACCGGTTTTCCCGGTAATCCGTATTTGCA (site CTCGCTACTTG) | 2.41
39 | CTCGCTCCATGGACCGGTTTTCCCGGTAATCCGTATTTGAG (site CTCGCTCCTCT) | 0.0649
40 | CTCGTAACATGGACCGGTTTTCCCGGTAATCCGTATTTGAC (site CTAGTATCTGT) | 0.0113
41 | CTCGTAACATGGACCGGTTTTCCCGGTAATCCGTATTTGAC (site CTCGTAACTGT) | 2.56
42 | CTCGTATCATGGACCGGTTTTCCCGGTAATCCGTATTTGAC (site CTAGTATCTGT) | 0.00452
43 | CTCGTATCATGGACCGGTTTTCCCGGTAATCCGTATTTGAC (site CTCGTATCTGT) | 2.6
44 | CTCGTATCATGGACCGGTTTTCCCGGTAATCCGTATTTGAC (site CTGGTATCTGT) | 0
45 | CTCGTATCATGGACCGGTTTTCCCGGTAATCCGTATTTGAC (site CTTGTATCTGT) | 0
46 | CTCTAAACATGGACCGGTTTTCCCGGTAATCCGTATTTGCT (site CTCTAAACTAG) | 2.06
47 | CTCTAAACATGGACCGGTTTTCCCGGTAATCCGTATTTGCT (site CTCTACACTAG) | 0.676
48 | CTCTAAACATGGACCGGTTTTCCCGGTAATCCGTATTTGCT (site CTCTAGACTAG) | 0.36
49 | CTCTAAACATGGACCGGTTTTCCCGGTAATCCGTATTTGCT (site CTCTATACTAG) | 0
50 | CTCTATACATGGACCGGTTTTCCCGGTAATCCGTATTTGCT (site CTCTAAACTAG) | 0

Row | Sequence | recombinant UMI read abundance (log10)
51 | CTCTATACATGGACCGGTTTTCCCGGTAATCCGTATTTGCT (site CTCTACACTAG) | 0.592
52 | CTCTATACATGGACCGGTTTTCCCGGTAATCCGTATTTGCT (site CTCTAGACTAG) | 0
53 | CTCTATACATGGACCGGTTTTCCCGGTAATCCGTATTTGCT (site CTCTATACTAG) | 2.08
54 | CTCTCTACATGGACCGGTTTTCCCGGTAATCCGTATTTGAG (site CTCACTACTCT) | 0.0192
55 | CTCTCTACATGGACCGGTTTTCCCGGTAATCCGTATTTGAG (site CTCCCTACTCT) | 0.00919
56 | CTCTCTACATGGACCGGTTTTCCCGGTAATCCGTATTTGAG (site CTCGCTACTCT) | 0.00461
57 | CTCTCTACATGGACCGGTTTTCCCGGTAATCCGTATTTGAG (site CTCTCTACTCT) | 0.0107
58 | CTCTGTTCATGGACCGGTTTTCCCGGTAATCCGTATTTGCC (site CTCTGTTCTGG) | 1.45
59 | CTCTTCACATGGACCGGTTTTCCCGGTAATCCGTATTTGGC (site CTCTTCACTGC) | 2.73
60 | CTGAAAACATGGACCGGTTTTCCCGGTAATCCGTATTTGCA (site CTGAAAACTTG) | 1.48
61 | CTGAAAACATGGACCGGTTTTCCCGGTAATCCGTATTTGCA (site CTGCAAACTTG) | 0
62 | CTGAAAACATGGACCGGTTTTCCCGGTAATCCGTATTTGCA (site CTGGAAACTTG) | 0
63 | CTGAAAACATGGACCGGTTTTCCCGGTAATCCGTATTTGCA (site CTGTAAACTTG) | 0
64 | CTGAATCCATGGACCGGTTTTCCCGGTAATCCGTATTTGTT (site CAGAATCCTAA) | 0.0107
65 | CTGAATCCATGGACCGGTTTTCCCGGTAATCCGTATTTGTT (site CCGAATCCTAA) | 0
66 | CTGAATCCATGGACCGGTTTTCCCGGTAATCCGTATTTGTT (site CGGAATCCTAA) | 0
67 | CTGAATCCATGGACCGGTTTTCCCGGTAATCCGTATTTGTT (site CTGAATCCTAA) | 1.5
68 | CTGAATGCATGGACCGGTTTTCCCGGTAATCCGTATTTGTT (site CGGAATCCTAA) | 0.00219
69 | CTGAATGCATGGACCGGTTTTCCCGGTAATCCGTATTTGTT (site CTGAATGCTAA) | 1.94
70 | CTGCATACATGGACCGGTTTTCCCGGTAATCCGTATTTGTA (site CTGCATACTTA) | 1.59
71 | CTGCCGACATGGACCGGTTTTCCCGGTAATCCGTATTTGCG (site CTGCCGACTCG) | 1.83
72 | CTGCTAACATGGACCGGTTTTCCCGGTAATCCGTATTTGGA (site CTACTAACTTC) | 1.16
73 | CTGCTAACATGGACCGGTTTTCCCGGTAATCCGTATTTGGA (site CTCCTAACTTC) | 0.394
74 | CTGCTAACATGGACCGGTTTTCCCGGTAATCCGTATTTGGA (site CTGCTAACTTC) | 1.62
75 | CTGCTAACATGGACCGGTTTTCCCGGTAATCCGTATTTGGA (site CTTCTAACTTC) | 0.563
